Test results: ChEMBL document CHEMBL5215007, “Polycyclic Polyprenylated Acylphloroglucinols Bearing a Lavandulyl-Derived Substituent from Garcinia xanthochymus Fruits” (J Nat Prod, 2022)
Activity calls are given as the source filed them. The rule behind the calls is not given here.

What was measured:
HepG2 = experiment: Antiproliferative activity against human HepG2 cells assessed as inhibition of cell proliferation incubated for 24 hrs by CCK-8 assay; format: functional, cell-based; conditions: HepG2, 24 h
Hep 3B2 = experiment: Antiproliferative activity against human Hep3B cells assessed as inhibition of cell proliferation incubated for 24 hrs by CCK-8 assay; format: functional, cell-based
Huh-7 [1] = experiment: Antiproliferative activity against human Huh-7 cells assessed as inhibition of cell proliferation incubated for 24 hrs by CCK-8 assay; format: functional, cell-based; conditions: Huh-7, 24 h
Huh-7 [2] = experiment: Induction of apoptosis in human Huh-7 cells assessed as early apoptotic cells at 12.5 uM incubated for 24 hrs by Annexin V-FITC/PI staining based flow cytometric analysis (reference value: 2.83 %); format: functional
Huh-7 [3] = experiment: Induction of apoptosis in human Huh-7 cells assessed as viable cells at 6.25 uM incubated for 24 hrs by Annexin V-FITC/PI staining based flow cytometric analysis (reference value: 92.31 %); format: functional; conditions: read-out: Activity
Huh-7 [4] = experiment: Induction of apoptosis in human Huh-7 cells assessed as early apoptotic cells at 6.25 uM incubated for 24 hrs by Annexin V-FITC/PI staining based flow cytometric analysis (reference value: 2.83 %); format: functional
Huh-7 [5] = experiment: Induction of apoptosis in human Huh-7 cells assessed as necrotic cells at 6.25 uM incubated for 24 hrs by Annexin V-FITC/PI staining based flow cytometric analysis (reference value: 1.67 %); format: functional
Huh-7 [6] = experiment: Induction of apoptosis in human Huh-7 cells assessed as viable cells at 12.5 uM incubated for 24 hrs by Annexin V-FITC/PI staining based flow cytometric analysis (reference value: 92.31 %); format: functional; conditions: read-out: Activity
Huh-7 [7] = experiment: Induction of apoptosis in human Huh-7 cells assessed as necrotic cells at 3.125 uM incubated for 24 hrs by Annexin V-FITC/PI staining based flow cytometric analysis (reference value: 1.67 %); format: functional
Huh-7 [8] = experiment: Induction of apoptosis in human Huh-7 cells assessed as late apoptotic cells at 12.5 uM incubated for 24 hrs by Annexin V-FITC/PI staining based flow cytometric analysis (reference value: 3.19 %); format: functional
Huh-7 [9] = experiment: Induction of apoptosis in human Huh-7 cells assessed as late apoptotic cells at 6.25 uM incubated for 24 hrs by Annexin V-FITC/PI staining based flow cytometric analysis (reference value: 3.19 %); format: functional
[10] = biological target: Signal transducer and activator of transcription 3 (Homo sapiens) (UniProt P40763); experiment: Inhibition of STAT3 phosphorylation in human Huh-7 cells at 6.25 to 12.5 uM by Western blot analysis; format: cell-based; conditions: dose 6.25-12.5 µM
Signal transducer and activator of transcription 3 (Homo sapiens), sequence (P40763 whole entry): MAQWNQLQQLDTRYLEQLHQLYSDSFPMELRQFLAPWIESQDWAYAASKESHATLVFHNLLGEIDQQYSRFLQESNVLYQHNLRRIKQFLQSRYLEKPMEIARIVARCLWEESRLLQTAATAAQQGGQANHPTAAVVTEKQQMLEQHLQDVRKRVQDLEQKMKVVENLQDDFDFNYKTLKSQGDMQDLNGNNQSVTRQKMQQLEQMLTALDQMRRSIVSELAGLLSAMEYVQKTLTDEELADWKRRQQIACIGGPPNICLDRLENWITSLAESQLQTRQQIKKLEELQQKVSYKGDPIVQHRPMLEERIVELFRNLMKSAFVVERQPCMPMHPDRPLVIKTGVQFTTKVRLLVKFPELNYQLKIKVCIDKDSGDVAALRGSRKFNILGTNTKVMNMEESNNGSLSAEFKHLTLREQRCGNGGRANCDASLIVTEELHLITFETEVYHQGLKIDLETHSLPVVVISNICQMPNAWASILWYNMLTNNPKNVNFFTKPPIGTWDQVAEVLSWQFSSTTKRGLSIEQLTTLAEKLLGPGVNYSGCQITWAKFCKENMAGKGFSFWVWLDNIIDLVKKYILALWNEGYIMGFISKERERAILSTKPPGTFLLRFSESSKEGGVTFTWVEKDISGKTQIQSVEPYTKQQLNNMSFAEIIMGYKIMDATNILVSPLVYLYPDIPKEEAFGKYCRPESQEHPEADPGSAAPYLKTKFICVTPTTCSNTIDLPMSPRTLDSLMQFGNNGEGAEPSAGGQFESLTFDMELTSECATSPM

Huh-7 [11] = experiment: Induction of apoptosis in human Huh-7 cells assessed as early apoptotic cells at 3.125 uM incubated for 24 hrs by Annexin V-FITC/PI staining based flow cytometric analysis (reference value: 2.83 %); format: functional
Huh-7 [12] = experiment: Antimigratory activity against human Huh-7 cells assessed as inhibition of cell migration at 6.25 to 12.5 uM incubated for 48 hrs by scratch wound healing assay; format: functional, cell-based; conditions: dose 6.25-12.5 µM
Huh-7 [13] = experiment: Induction of apoptosis in human Huh-7 cells assessed as necrotic cells at 12.5 uM incubated for 24 hrs by Annexin V-FITC/PI staining based flow cytometric analysis (reference value: 1.67 %); format: functional
Huh-7 [14] = experiment: Induction of apoptosis in human Huh-7 cells assessed as viable cells at 3.125 uM incubated for 24 hrs by Annexin V-FITC/PI staining based flow cytometric analysis (reference value: 92.31 %); format: functional; conditions: read-out: Activity
Huh-7 [15] = experiment: Induction of apoptosis in human Huh-7 cells assessed as late apoptotic cells at 3.125 uM incubated for 24 hrs by Annexin V-FITC/PI staining based flow cytometric analysis (reference value: 3.19 %); format: functional

| Structure (SMILES) | IC50 (HepG2) [µM] | IC50 (Huh-7 [1]) [µM] | IC50 (Hep 3B2) [µM] | also measured |
| --- | --- | --- | --- | --- |
| CC(C)=CC[C@@H]1C[C@]23C[C@H](CCC(C)(C)O)C(C)(C)[C@](CC=C(C)C)(C(=O)C(C(=O)c4ccc(O)c(O)c4)=C2OC1(C)C)C3=O | 11.7 | 20.6 | 23.9 |  |
| CC(C)=CC[C@@H]1C[C@]23C[C@@H](CC=C(C)C)C(C)(C)[C@](CC=C(C)C)(C(=O)C(C(=O)c4ccc(O)c(O)c4)=C2OC1(C)C)C3=O | 4.3 | 9.3 | 9.3 | Activity (Huh-7 [2]): 10.38%; viability at 6.25 µM (Huh-7 [3]): 86.5%; Activity (Huh-7 [4]): 8.39%; Activity (Huh-7 [5]): 1.69%; viability at 12.5 µM (Huh-7 [6]): 83.8%; Activity (Huh-7 [7]): 1.53%; Activity (Huh-7 [8]): 3.3%; Activity (Huh-7 [9]): 3.38%; inhibition [10]: Active; Activity (Huh-7 [11]): 10.88%; Activity (Huh-7 [12]): Active; Activity (Huh-7 [13]): 2.55%; viability at 3.125 µM (Huh-7 [14]): 84.4%; Activity (Huh-7 [15]): 3.19% |
| C=C(C)CC[C@@H]1C[C@]23C[C@H](CC=C(C)C)C(C)(C)[C@](CC=C(C)C)(C(=O)C(C(=O)c4cccc(O)c4)=C2OC1(C)C)C3=O | 12.4 | 28.2 | 44.8 |  |
| C=C(C)CC[C@@H](C[C@]12C[C@H](CC=C(C)C)C(C)(C)[C@](CC=C(C)C)(C(=O)C(C(=O)c3cccc(O)c3)=C1O)C2=O)C(=C)C | 23.2 | 27.2 | 20.8 |  |
| C=C(C)[C@H]1C[C@]23C[C@H](CC=C(C)C)C(C)(C)[C@](CC=C(C)C)(C(=O)C(C(=O)c4cccc(O)c4)=C2O[C@@H]1C=C(C)C)C3=O | 22 | 25.1 | 17.9 |  |
| CNC(=O)c1cc(Oc2ccc(NC(=O)Nc3ccc(Cl)c(C(F)(F)F)c3)cc2)ccn1 [SORAFENIB] | 16.6 | 9.7 | 12.4 |  |
| C=C(C)CC[C@@H]1C[C@]23C[C@H](CCC(C)(C)O)C(C)(C)[C@](CC=C(C)C)(C(=O)C(C(=O)c4ccc(O)c(O)c4)=C2OC1(C)C)C3=O | 9.5 | 17.3 | 15.8 |  |
| C=C(C)[C@H]1C[C@]23C[C@H](CC=C(C)C)C(C)(C)[C@](CC=C(C)C)(C(=O)C(C(=O)c4ccc(O)c(O)c4)=C2O[C@@H]1C=C(C)C)C3=O | 11 | 18.1 | 18.2 |  |

Now from value to compound, other results behind:

| IC50 (HepG2) [µM] | IC50 (Huh-7 [1]) [µM] | Structure (SMILES) | IC50 (Hep 3B2) [µM] | also measured |
| --- | --- | --- | --- | --- |
| 22.5 | 22.9 | C=C(C)CC[C@H]1C[C@]23C[C@@H](CC=C(C)C)C(C)(C)[C@](CC=C(C)C)(C(=O)C(C(=O)c4ccc(O)c(O)c4)=C2OC1(C)C)C3=O | 15.5 |  |
| 3.9 | 12.6 | CC(C)=CC[C@@H]1C[C@]23C[C@H](CCC(C)(C)O)C(C)(C)OC2=C(C(=O)c2ccc(O)c(O)c2)C(=O)[C@@](CC=C(C)C)(C3=O)C1(C)C | 9 |  |
| 11.3 | 9.3 | C=C(C)CC[C@@H]1C[C@]23C[C@@H](CC=C(C)C)C(C)(C)[C@](CC=C(C)C)(C(=O)C(C(=O)c4ccc(O)c(O)c4)=C2OC1(C)C)C3=O | 17.1 | Activity (Huh-7 [2]): 11.75%; viability at 6.25 µM (Huh-7 [3]): 80.3%; Activity (Huh-7 [4]): 11.09%; Activity (Huh-7 [5]): 3.01%; viability at 12.5 µM (Huh-7 [6]): 77.7%; Activity (Huh-7 [7]): 2.09%; Activity (Huh-7 [8]): 6.37%; Activity (Huh-7 [9]): 5.65%; inhibition [10]: Active; Activity (Huh-7 [11]): 11.74%; Activity (Huh-7 [12]): Active; Activity (Huh-7 [13]): 4.17%; viability at 3.125 µM (Huh-7 [14]): 80.8%; Activity (Huh-7 [15]): 5.35% |
